Drawing on US8673325B1, “Cosmetic compositions comprising EPA and salicylic acid and methods of making and using same” (Dignity Sciences Limited, priority 2012, dated 2014), this text covers MIC and MBC for 7 compounds.

In brackets after ≈: the same amount, converted by molar mass. Read-outs that look alike come from different tables or passages of the source.

This test has as its system P. acnes NCTC737. Kind of test: MIC and MBC against P. acnes by broth micro-dilution (CLSI M11-A5). It counts as cell-based. Conditions: for MIC: anaerobic 37° C., 48 h, lowest concentration preventing visible growth. The procedure:
Neomycin (“NEO”) was obtained and used as a 10 mg/mL solution in sterile saline. P. acnes NCTC737 was obtained from the National Collection of Type Cultures (Porton Down, UK). Minimum inhibitory (MIC) and bactericidal (MBC) concentration determinations MICs and MBCs were determined against P. acnes by broth micro-dilution according to protocol M11-A5 published by the Clinical and Laboratory Standards Institute (CLSI, 2001). […] ([…] Workstation; Don Whitley Scientific Ltd., Shipley, UK). Absorbance readings (A600) for the bacterial suspensions were determined and fresh media was used to adjust the inoculums to 1×10^7 CFU/mL. Inoculum sizes were confirmed by diluting in phosphate-buffered saline (PBS) and plating on SBA. Each well was inoculated with 5 μL of bacterial suspension. Negative control wells contained culture medium only, while positive control wells contained media inoculated with bacterial suspension. Further inoculated wells controlled for the antimicrobial effects of the greatest concentration of solvent (DMSO or ethanol) used in any of the test wells (ca. 10%). Microtitre plates were incubated anaerobically at 37° C. for 48 h, and then MICs were determined as the lowest concentration of each compound that prevented visible bacterial growth. MBCs were determined by plating 50 μL from each well showing no visible growth on to SBA and incubating these plates anaerobically at 37° C. for 96 h. […] MICs and MBCs were performed in duplicate.
For orientation: Broth dilution looks for growth in wells or tubes with falling amounts of substance.

Where [1] appears, read: Cutibacterium acnes, NCTC737, 48 h, read-out: MIC.
Setting [2] is: Cutibacterium acnes, NCTC737, lowest concentration that killed >99.9% of the initial inoculum, read-out: MBC.

For `O=C(O)CCCCCCCC(=O)O` [AZA, azelaic acid], the MIC is more than 4096 µg/mL. Moreover, under setting [1], the MIC was more than 4100 µg/mL. Besides, the MBC (MEC) was more than 4096 µg/mL.
Consider `O=C(OOC(=O)c1ccccc1)c1ccccc1` [BPO, benzoyl peroxide], for which the MIC under setting [1] stood at 64 µg/mL (≈ 264 µM). The MBC under setting [2] was more than 4100 µg/mL and the minimum bactericidal concentration (MBC) (MEC) is more than 4096 µg/mL.
`CC/C=C\C/C=C\C/C=C\C/C=C\C/C=C\CCCC(=O)O` [EPA, eicosapentaenoic acid]: the MIC is 128 µg/mL (≈ 423 µM). For the same compound, under setting [1], the minimal inhibitory concentration (MIC) lay in the range of 64 to 128 µg/mL (≈ 212 to 423 µM). Moreover, the MBC under setting [2] is more than 4100 µg/mL. Where the note is “MEC”, this compound registered an MBC of more than 4096 µg/mL.
On to `NS(=O)(=O)c1cc(C(=O)O)c(NCc2ccco2)cc1Cl` [FUS, furosemide], for which the MIC under setting [1] came to 2 µg/mL (≈ 6.05 µM). Further, the minimum bactericidal concentration (MBC) stood at 256 µg/mL (≈ 774 µM) under setting [2] and 256 µg/mL (≈ 774 µM) (MEC).
With `CCCCC/C=C\C/C=C\C/C=C\CCCCC(=O)O` [GLA, gamma-linolenic acid], the MIC is 64 µg/mL (≈ 230 µM). Also, under setting [1], the MIC was in the range of 64 to 128 µg/mL (≈ 230 to 460 µM). Further, the minimum bactericidal concentration (MBC) under setting [2] was more than 4100 µg/mL. Where the note is “MEC”, the MBC was more than 4096 µg/mL.
In turn, `NC[C@@H]1O[C@H](O[C@H]2[C@@H](O)[C@H](O[C@@H]3[C@@H](O)[C@H](N)C[C@H](N)[C@H]3O[C@H]3O[C@H](CN)[C@@H](O)[C@H](O)[C@H]3N)O[C@@H]2CO)[C@H](N)[C@@H](O)[C@@H]1O` [NEO, Neomycin] registered a minimal inhibitory concentration (MIC) of 8 µg/mL (≈ 13 µM). The same compound had a minimum bactericidal concentration (MBC) (MEC) of 16 µg/mL (≈ 26 µM). Besides, the minimum bactericidal concentration (MBC) (lowest concentration that killed >99.9% of the initial inoculum) was determined as 16 µg/mL (≈ 26 µM).
Turning to `O=C(O)c1ccccc1O` [SA, salicylic acid], under setting [1], the MIC is 64 µg/mL (≈ 463 µM). In addition, the MBC under setting [2] is more than 4100 µg/mL and the MBC (MEC) is more than 4096 µg/mL.

In general, MIC refers to the smallest concentration in the dilution series that meets the test's criterion for growth inhibition. One may read the MBC as the smallest concentration meeting the test's criterion for killing.
